Assay in all cases: NCI-60 cell line screen, 48 h
The test system of experiment [1] is A498 renal.
In experiment [2] the test system is HOP-92 NSCLC.
Experiment [3] deals with HS 578T breast.
The subject of experiment [4] is K-562 leukemia.
Experiment [5] has as its system LOX IMVI melanoma.
For experiment [6], the system named is MALME-3M melanoma.
Experiment [7] deals with MDA-MB-231 breast.
Experiment [8] deals with MDA-MB-435.
Experiment [9] relates to NCI/ADR-RES ovarian.
For experiment [10], the system named is RPMI-8226 leukemia.
The test system of experiment [11] is SK-MEL-28 melanoma.

The source of these data is PubChem BioAssay (NCI).

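Each compound was tested at five concentrations against cells in 96-well plates for 48 hours. GI50: concentration for 50% inhibition of growth. Definition used: TGI = concentration required for complete inhibition of growth.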

As to `N=C(N)SCCN1CCCCC1`, the TGI in [1] was more than 100 µM; in experiment [2] it was more than 100 µM; in experiment [3], 58.2 µM; in [4] it was 62.1 µM; in experiment [5], 48.4 µM; in [6] it was 32.1 µM. The TGI in [7] was 44.6 µM; in [8] it was 52.7 µM; in experiment [9] it was more than 100 µM; in experiment [10] it was 40.2 µM; in experiment [11], 88.8 µM.

In the case of `O=S(=O)([O-])[O-].[Fe+2].[OH2+]c1c(Cl)cc(Cl)cc1/C=N/Nc1ccccn1`, the TGI in experiment [1] is 4.5 µM; in [2], 0.899 µM; in experiment [4], 3.26 µM; in experiment [5], 2.79 µM; in experiment [6], 3.57 µM; in experiment [10] it was 6.12 µM. The molecule also showed a TGI in experiment [11] of 3.32 µM.

In the case of `C[N+]1(c2ccccc2)C=C(c2ccccc2)SC1=S` (stereo unspecified), the TGI is 46.7 µM in [1]; more than 100 µM in experiment [3]; more than 100 µM in [4]; more than 100 µM in [5]; more than 100 µM in experiment [6]; more than 100 µM in experiment [7]. Further, the TGI in [8], in experiment [9], in experiment [10] and in experiment [11] was more than 100 µM each time.

As to `Nc1ccc(S(=O)(=O)NCCS(=O)(=O)O)cc1`, the TGI in experiment [1], in experiment [2], in [3], in [4], in [5] and in experiment [6] was more than 100 µM each time. The TGI in experiment [7], in experiment [8], in [9] and in [11] was more than 100 µM each time.

Consider `O=C(/C=C/c1ccc(O)cc1)c1cc(-c2cc(CCC(=O)c3ccc(O)cc3O)ccc2O)c(O)cc1O`, for which the TGI in [1] is more than 50 µM; in experiment [2], more than 50 µM; in experiment [3], more than 50 µM; in experiment [4], 48.4 µM; in experiment [5], more than 50 µM; in [6] it was more than 50 µM. Besides, the TGI in experiment [7], in experiment [8], in experiment [9], in experiment [10] and in experiment [11] was more than 50 µM in each case.

As to `Cc1ncc(COP(=O)(O)O)c(C)c1O`, the TGI in [1], in experiment [2], in [3], in [4], in [5] and in experiment [6] was more than 100 µM each time. Moreover, the TGI in experiment [7], in experiment [8], in [9] and in [11] was more than 100 µM each time.

Take `COc1ccc(OC)c([N+](=O)[O-])c1-c1nc2sc(C)c(C)n2c1/C=N/N=C(N)N`: the TGI in [1], in experiment [2], in [3], in experiment [4], in experiment [5] and in [6] was more than 100 µM in each case. Moreover, the TGI was more than 100 µM in [7]; more than 100 µM in [8]; more than 100 µM in [9]; 89.9 µM in experiment [10]; more than 100 µM in [11].

In the case of `COc1cc(O)c2c(=O)c(OC)c(-c3ccc(OC)c(OC)c3)oc2c1.[Zn+2]`, the TGI was 9.49 µM in [3]; more than 100 µM in experiment [4]; more than 100 µM in [5]; more than 100 µM in experiment [6]; 65.4 µM in experiment [7]; more than 100 µM in experiment [9]. Also, the TGI in [10] and in experiment [11] was more than 100 µM each time. Moreover, the GI50 is 41.6 µM in [4]; 7.68 µM in experiment [5]; 33.3 µM in experiment [6]; 3.83 µM in experiment [7]; 14.9 µM in experiment [9]; more than 100 µM in [11].

For the molecule `CCCCCCCCc1ccc(CCC(N)(CO)CO)cc1`, the GI50 in experiment [1] is 3.34 µM; in experiment [2] it was 1.39 µM; in experiment [4] it was 1.82 µM; in experiment [6] it was 2.32 µM; in experiment [7], 0.521 µM; in experiment [8] it was 1.82 µM. Moreover, the GI50 in experiment [11] was 1.8 µM. Further, the TGI was 22.6 µM in experiment [1]; 3.53 µM in experiment [2]; 4.33 µM in experiment [4]; 5.8 µM in [6]; 1.98 µM in [7]; 3.45 µM in [8]. In experiment [11], this molecule displayed a TGI of 3.2 µM.

For `C=C(C[C@@H](O)[C@H](C)NC(=O)OCc1ccccc1)C(=O)OC(C)(C)C`, the TGI in [1], in experiment [2], in experiment [3], in experiment [4], in experiment [5] and in [6] was more than 100 µM throughout. Also, the TGI in experiment [7], in experiment [8], in [9], in experiment [10] and in [11] was more than 100 µM throughout.

Regarding `CCOc1ccc(N=Nc2ccc(-c3ccc(N=Nc4c(O)ccc5cc(S(=O)(=O)O)cc(S(=O)(=O)O)c45)cc3)cc2)cc1`, the TGI in experiment [2], in experiment [3], in experiment [4], in experiment [6], in [7] and in experiment [8] was more than 100 µM in each case. Moreover, the TGI in experiment [9], in experiment [10] and in experiment [11] was more than 100 µM each time.

Turning to `O=C1O/C(=C\C=C\CO)C=C1/C=C/CO`, the TGI in experiment [4] is more than 100 µM; in experiment [5], more than 100 µM; in experiment [6], 32.5 µM; in experiment [7] it was 52.8 µM; in [8] it was more than 100 µM; in experiment [9], 89.1 µM. For the same molecule, the TGI was 47.6 µM in [10] and 49.7 µM in experiment [11].

Take `Cc1cccc(/C=C2/C(=O)Nc3ccccc32)n1`: the TGI was 46.9 µM in experiment [1]; 31.3 µM in experiment [2]; more than 80.1 µM in [3]; 40.4 µM in experiment [4]; more than 62.6 µM in experiment [5]; 49.1 µM in experiment [6]. For the same molecule, the TGI was 34.3 µM in [7]; 60.9 µM in [8]; 53.2 µM in experiment [9]; 46.5 µM in experiment [10]; more than 100 µM in [11]. Further, in experiment [7], the GI50 was 11.6 µM.

As for `CC(=O)Oc1cc(/C=C/c2ccc(O)cc2)cc(OC(C)=O)c1`, the TGI in experiment [1] was 85.5 µM; in [2], more than 100 µM; in experiment [3], more than 100 µM; in experiment [4], more than 100 µM; in [6], more than 100 µM; in [7] it was more than 100 µM. The TGI in experiment [8] is more than 100 µM; in experiment [9] it was 51.9 µM; in [10], 25.4 µM; in [11], more than 100 µM.

In the case of `CC(=O)[C@]12OC(=O)C3=C1[C@H](CC[C@@H]3C)[C@@H](C)C[C@H]2C=C(C)C`, the TGI was determined as 15.1 µM in [1]; 7.43 µM in experiment [2]; 18.1 µM in experiment [3]; 13.2 µM in experiment [4]; 15.2 µM in experiment [5]; 15.6 µM in experiment [7]. The TGI in experiment [8] is 16 µM; in experiment [9] it was 17.7 µM; in experiment [10], 15.5 µM.

On to `NC(=S)N/N=C1\CC(c2ccccc2)Nc2ccccc21` (stereo unspecified), for which the TGI in experiment [1] is 68.2 µM; in experiment [2], 57.5 µM; in [4] it was more than 100 µM; in [5] it was more than 100 µM; in experiment [6], 97 µM; in experiment [10] it was more than 100 µM. The molecule also registered a TGI in experiment [11] of more than 100 µM.

For `CC(=O)c1c(C)cc2cccc(OC3OC(CO)C(O)C(O)C3O)c2c1O` (stereo unspecified) (tested in a mixture with another compound), the TGI in experiment [1], in experiment [2], in experiment [3], in experiment [4], in experiment [5] and in experiment [6] was more than 100 µM in each case. Further, the TGI in experiment [7], in experiment [8], in experiment [9], in [10] and in [11] was more than 100 µM in each case.

With `C[N+]1(C)C/C(=C\c2ccc(O)cc2)C(=O)/C(=C/c2ccc(O)cc2)C1`, the TGI in [1], in [2], in experiment [5], in experiment [6], in [10] and in [11] was more than 100 µM in each case.
